Common to all, as to assay: biochemical binding or enzymatic assay
In test [1] the target is T1, ROCK2 (Homo sapiens, UniProt O75116).
T1 construct: purchased DiscoveRx KINOMEscan
Particulars: Novartis. The method, then: (§1) Finally, the selectivity profile of i-CDK9 toward other non-CDK kinases was also assessed using the KINOMEscan platform. […] Except for CLK4, for which no suitable assay was available, the rest of the kinases plus a selected group of others were re-examined for the concentration-dependent effect of i-CDK9 in either functional kinase assays or binding assays. […] Indeed, it has recently been reported that DYRK1A acts as a Pol II CTD Kinase at its target gene promoters ([Di Vona et al., 2015]).

Test [2] addresses T2, EPHB4 (Homo sapiens, UniProt P54760).
T2 construct: purchased DiscoveRx KINOMEscan
T2 sequence (P54760 16-987): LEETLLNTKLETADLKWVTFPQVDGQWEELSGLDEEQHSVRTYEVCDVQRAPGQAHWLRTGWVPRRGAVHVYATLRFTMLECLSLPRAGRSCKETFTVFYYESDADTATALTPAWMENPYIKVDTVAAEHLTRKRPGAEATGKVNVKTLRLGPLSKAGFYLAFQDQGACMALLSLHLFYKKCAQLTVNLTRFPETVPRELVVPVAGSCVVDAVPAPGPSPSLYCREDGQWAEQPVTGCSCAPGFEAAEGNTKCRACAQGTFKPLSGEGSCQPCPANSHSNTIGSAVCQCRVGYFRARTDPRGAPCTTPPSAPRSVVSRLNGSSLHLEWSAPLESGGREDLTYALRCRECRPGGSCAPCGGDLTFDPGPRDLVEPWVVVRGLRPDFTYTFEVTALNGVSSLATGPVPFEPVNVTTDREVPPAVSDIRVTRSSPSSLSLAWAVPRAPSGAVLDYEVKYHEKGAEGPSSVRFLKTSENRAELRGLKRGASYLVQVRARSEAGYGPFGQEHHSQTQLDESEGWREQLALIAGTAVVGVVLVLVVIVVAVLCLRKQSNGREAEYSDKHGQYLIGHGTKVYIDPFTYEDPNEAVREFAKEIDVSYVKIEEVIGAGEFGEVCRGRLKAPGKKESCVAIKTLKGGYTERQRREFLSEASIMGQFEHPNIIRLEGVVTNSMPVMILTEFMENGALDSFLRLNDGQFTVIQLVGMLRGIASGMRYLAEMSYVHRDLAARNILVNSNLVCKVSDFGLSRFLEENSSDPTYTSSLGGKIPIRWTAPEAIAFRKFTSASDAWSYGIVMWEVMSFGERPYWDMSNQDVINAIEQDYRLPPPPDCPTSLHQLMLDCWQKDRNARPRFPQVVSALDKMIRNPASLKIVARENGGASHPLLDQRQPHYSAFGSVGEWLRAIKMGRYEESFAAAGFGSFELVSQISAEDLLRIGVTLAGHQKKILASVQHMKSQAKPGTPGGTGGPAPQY
Particulars: Novartis. As for the experimental part: as §1

The target in test [3] is T3, MET (Homo sapiens, UniProt P08581).
T3 construct: purchased DiscoveRx KINOMEscan
Particulars: Novartis. As for the experimental part:
as §1

The target of test [4] is T4, RET (Homo sapiens, UniProt P07949).
T4 construct: purchased DiscoveRx KINOMEscan
The settings on record: Novartis. As for the experimental part:
as §1

Test [5] concerns the target T5, DYRK2 (Homo sapiens, UniProt Q92630).
T5 construct: purchased DiscoveRx KINOMEscan
T5 sequence (Q92630 1-601): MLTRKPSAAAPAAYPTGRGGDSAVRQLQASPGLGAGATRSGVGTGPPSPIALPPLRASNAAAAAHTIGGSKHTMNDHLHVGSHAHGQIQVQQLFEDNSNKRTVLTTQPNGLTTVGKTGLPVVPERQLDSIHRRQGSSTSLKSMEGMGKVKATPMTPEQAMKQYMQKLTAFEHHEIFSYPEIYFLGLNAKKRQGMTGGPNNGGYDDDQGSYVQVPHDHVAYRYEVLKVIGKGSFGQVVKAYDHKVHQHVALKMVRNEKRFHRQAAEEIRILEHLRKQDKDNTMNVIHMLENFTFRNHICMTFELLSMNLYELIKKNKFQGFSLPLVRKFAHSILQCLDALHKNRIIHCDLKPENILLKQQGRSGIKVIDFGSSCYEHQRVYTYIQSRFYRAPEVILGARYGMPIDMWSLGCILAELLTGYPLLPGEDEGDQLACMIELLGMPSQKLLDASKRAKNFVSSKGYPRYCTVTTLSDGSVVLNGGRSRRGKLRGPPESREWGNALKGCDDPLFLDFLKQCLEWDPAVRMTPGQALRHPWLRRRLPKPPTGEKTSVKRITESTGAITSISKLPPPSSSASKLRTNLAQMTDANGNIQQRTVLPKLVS
Particulars: Millipore. The method, then: as §1

Test [6] deals with T6, FLT3 (Homo sapiens, UniProt P36888).
T6 construct: purchased DiscoveRx KINOMEscan
The settings on record: Novartis. As for the experimental part:
as §1

Test [7] addresses T7, IGF1R (Homo sapiens, UniProt P08069).
T7 construct: purchased DiscoveRx KINOMEscan
Particulars: Novartis. As for the experimental part: as §1

Test [8] concerns the target T8, FYN (Homo sapiens, UniProt P06241).
T8 construct: purchased DiscoveRx KINOMEscan
Particulars: Novartis. The method, then: as §1

In test [9] the target is T9, CAMK2D (Homo sapiens, UniProt Q13557).
T9 construct: purchased DiscoveRx KINOMEscan
Particulars: Novartis. The method, then: as §1

Test [10] addresses T10, ZAP70 (Homo sapiens, UniProt P43403).
T10 construct: purchased DiscoveRx KINOMEscan
T10 sequence (P43403 1-619): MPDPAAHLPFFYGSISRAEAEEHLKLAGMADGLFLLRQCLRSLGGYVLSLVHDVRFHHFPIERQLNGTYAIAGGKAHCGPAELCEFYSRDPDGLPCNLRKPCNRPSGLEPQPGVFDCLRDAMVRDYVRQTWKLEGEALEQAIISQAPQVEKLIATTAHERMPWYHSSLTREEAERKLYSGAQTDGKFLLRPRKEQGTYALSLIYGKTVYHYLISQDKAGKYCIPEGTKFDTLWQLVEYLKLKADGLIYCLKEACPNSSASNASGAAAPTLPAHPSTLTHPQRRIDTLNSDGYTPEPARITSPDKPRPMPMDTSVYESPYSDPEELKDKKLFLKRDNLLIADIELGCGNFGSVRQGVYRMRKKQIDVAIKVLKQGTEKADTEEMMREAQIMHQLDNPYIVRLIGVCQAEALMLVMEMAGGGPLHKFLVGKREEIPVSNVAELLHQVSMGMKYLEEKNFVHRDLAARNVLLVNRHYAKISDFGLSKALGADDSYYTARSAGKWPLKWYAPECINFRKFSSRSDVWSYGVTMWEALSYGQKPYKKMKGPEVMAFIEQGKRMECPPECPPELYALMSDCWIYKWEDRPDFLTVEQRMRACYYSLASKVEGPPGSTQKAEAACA
The method, then:
as §1

In test [11] the target is T11, TYK2(JH1domain-catalytic) (Homo sapiens, UniProt P29597).
T11 construct: TYK2(JH1domain-catalytic)
The settings on record: Novartis. As for the experimental part: as §1

The target of test [12] is T12, CSK (Homo sapiens, UniProt P41240).
T12 construct: purchased DiscoveRx KINOMEscan
Particulars: Novartis. As for the experimental part:
as §1

T1 sequence (O75116 whole entry): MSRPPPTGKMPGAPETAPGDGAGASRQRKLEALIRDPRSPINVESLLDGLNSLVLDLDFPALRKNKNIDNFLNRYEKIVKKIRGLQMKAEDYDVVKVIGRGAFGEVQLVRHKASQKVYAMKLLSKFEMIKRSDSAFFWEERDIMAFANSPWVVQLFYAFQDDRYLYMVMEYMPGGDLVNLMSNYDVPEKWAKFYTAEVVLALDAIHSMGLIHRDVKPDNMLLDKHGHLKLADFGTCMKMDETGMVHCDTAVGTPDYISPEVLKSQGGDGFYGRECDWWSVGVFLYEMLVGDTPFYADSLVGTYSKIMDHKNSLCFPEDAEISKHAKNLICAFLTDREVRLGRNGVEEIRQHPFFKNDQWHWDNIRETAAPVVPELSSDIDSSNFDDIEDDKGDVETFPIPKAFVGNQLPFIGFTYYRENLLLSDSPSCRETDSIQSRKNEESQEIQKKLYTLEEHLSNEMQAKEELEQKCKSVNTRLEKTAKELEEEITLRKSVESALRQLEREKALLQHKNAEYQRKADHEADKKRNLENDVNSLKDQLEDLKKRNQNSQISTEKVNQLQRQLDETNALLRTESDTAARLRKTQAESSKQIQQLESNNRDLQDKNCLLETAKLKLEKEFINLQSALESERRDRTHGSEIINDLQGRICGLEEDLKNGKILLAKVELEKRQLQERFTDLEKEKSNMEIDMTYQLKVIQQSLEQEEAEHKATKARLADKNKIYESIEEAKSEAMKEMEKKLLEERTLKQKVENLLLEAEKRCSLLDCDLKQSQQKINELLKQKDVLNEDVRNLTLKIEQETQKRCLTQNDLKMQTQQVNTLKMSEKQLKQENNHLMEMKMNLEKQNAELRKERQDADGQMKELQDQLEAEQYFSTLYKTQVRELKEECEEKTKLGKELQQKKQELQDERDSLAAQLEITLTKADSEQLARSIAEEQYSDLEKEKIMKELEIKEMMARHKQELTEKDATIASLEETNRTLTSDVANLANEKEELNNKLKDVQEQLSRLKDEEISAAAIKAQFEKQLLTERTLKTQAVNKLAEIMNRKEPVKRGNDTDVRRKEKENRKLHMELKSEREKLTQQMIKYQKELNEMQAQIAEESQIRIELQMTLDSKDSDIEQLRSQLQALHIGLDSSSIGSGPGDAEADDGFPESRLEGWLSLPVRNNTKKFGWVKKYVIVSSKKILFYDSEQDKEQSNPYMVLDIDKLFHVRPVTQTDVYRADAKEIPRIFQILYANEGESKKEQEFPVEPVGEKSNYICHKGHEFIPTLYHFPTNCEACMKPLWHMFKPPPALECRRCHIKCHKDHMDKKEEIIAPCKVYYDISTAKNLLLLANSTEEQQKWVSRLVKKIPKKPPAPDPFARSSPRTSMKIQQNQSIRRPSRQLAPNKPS
T11 sequence (P29597 897-1176 limits assumed): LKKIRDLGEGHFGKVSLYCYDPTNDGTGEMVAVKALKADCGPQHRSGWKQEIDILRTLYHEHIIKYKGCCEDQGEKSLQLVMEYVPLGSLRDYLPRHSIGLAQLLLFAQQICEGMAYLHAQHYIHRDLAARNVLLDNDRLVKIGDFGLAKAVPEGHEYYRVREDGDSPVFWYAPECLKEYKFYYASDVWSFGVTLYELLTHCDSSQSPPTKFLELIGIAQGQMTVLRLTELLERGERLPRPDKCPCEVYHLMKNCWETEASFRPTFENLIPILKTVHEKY
T7 sequence (P08069 31-1367): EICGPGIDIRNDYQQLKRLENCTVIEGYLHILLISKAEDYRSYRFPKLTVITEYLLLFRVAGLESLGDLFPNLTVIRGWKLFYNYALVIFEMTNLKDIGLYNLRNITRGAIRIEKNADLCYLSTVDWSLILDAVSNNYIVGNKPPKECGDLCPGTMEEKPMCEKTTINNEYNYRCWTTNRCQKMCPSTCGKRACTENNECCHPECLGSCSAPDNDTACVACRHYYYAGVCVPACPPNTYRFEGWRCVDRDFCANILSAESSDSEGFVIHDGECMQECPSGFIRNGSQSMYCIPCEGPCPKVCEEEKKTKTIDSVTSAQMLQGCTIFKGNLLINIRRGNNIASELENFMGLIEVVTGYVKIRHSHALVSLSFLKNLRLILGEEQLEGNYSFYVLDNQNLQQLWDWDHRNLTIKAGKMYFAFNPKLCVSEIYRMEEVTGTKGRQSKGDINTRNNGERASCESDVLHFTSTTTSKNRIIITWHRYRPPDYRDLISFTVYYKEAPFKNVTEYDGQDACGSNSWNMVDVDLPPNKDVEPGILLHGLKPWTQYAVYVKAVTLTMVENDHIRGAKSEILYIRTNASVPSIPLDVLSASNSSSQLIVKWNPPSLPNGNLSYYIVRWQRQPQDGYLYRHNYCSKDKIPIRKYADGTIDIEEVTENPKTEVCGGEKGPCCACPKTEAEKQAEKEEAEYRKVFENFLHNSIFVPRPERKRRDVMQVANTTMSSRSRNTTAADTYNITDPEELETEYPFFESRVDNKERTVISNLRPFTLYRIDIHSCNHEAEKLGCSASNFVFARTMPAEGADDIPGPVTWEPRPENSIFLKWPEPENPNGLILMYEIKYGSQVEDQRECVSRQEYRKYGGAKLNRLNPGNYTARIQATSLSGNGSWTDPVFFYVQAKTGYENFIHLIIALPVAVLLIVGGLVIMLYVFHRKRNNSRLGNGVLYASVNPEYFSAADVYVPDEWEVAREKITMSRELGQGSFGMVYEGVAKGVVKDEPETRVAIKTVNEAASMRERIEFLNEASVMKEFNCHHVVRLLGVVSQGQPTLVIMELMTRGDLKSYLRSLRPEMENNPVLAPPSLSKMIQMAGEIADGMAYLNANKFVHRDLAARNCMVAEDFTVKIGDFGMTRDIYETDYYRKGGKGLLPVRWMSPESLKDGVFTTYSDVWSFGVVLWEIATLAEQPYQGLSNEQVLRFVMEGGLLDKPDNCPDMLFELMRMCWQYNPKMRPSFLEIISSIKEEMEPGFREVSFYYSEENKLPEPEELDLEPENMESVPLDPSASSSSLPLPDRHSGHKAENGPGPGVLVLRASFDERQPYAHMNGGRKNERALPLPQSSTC
T12 sequence (P41240 whole entry): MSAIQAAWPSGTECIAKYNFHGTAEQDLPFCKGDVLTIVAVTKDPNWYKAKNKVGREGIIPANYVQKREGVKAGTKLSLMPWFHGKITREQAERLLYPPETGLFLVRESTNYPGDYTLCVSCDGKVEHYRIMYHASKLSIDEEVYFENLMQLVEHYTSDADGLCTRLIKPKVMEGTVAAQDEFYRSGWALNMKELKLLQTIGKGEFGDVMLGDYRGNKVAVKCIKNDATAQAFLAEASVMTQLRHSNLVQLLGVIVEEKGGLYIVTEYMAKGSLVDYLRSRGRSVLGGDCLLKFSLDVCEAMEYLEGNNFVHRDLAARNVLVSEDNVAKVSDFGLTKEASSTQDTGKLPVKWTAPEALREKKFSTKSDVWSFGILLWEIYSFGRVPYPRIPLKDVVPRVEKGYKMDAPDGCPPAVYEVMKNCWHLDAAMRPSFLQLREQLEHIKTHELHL
T9 sequence (Q13557 whole entry): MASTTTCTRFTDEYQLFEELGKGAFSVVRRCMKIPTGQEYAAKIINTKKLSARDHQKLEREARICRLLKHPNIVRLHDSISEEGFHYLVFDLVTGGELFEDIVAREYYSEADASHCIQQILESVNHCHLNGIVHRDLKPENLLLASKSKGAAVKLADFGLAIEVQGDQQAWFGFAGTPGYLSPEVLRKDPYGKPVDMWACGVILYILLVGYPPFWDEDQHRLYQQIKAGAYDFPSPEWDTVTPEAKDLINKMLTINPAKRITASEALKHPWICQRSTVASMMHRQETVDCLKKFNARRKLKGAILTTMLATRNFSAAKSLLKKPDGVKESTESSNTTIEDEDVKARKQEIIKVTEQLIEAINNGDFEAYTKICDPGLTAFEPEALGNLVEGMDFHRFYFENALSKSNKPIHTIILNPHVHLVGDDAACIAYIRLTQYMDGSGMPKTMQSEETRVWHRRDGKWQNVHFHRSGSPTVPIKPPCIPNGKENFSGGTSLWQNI
T4 sequence (P07949 29-1114): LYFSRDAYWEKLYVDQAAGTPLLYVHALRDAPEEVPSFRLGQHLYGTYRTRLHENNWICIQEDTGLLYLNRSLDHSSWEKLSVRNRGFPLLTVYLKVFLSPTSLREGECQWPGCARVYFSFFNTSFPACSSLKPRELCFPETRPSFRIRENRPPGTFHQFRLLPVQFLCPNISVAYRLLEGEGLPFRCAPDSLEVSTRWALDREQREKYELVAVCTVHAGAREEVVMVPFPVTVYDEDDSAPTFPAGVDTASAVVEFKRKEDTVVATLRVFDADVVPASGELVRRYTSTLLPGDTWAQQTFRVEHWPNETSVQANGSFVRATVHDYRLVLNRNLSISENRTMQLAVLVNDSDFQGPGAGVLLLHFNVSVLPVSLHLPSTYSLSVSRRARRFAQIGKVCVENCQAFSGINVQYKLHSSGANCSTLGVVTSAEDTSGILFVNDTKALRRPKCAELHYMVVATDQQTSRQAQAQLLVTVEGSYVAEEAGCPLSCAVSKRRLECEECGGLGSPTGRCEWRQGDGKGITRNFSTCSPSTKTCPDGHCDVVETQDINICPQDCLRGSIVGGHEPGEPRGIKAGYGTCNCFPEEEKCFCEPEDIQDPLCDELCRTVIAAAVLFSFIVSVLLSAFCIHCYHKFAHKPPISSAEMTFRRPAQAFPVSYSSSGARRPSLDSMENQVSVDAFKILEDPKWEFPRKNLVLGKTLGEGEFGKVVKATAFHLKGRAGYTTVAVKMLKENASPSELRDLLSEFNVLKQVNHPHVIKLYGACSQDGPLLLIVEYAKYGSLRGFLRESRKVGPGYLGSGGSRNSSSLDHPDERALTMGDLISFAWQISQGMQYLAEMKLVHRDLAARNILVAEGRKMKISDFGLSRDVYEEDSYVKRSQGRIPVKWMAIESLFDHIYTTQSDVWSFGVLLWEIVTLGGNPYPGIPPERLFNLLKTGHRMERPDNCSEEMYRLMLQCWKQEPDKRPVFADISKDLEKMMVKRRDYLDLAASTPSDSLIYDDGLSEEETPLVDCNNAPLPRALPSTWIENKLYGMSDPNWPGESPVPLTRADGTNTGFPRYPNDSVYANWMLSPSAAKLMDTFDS

For the molecule `N[C@H]1CC[C@H](Nc2cc(-c3cccc(NCc4cccc(F)c4)n3)c(Cl)cn2)CC1` [i-CDK9, N2′-(trans-4-aminocyclohexyl)-5′-chloro-N6-(3-fluorobenzyl)-2,4′-bipyridine-2′,6-diamine], the concentration for half-maximal inhibition (IC50) (in general, the concentration needed to halve the response being measured) in test [1] is more than 10 µM; in [2], more than 10 µM; in test [3], more than 10 µM; in test [4] it was more than 10 µM; in [5] it was 1.07 µM; in test [6] it was more than 10 µM. The IC50 in test [7] was more than 10 µM; in test [8], more than 10 µM; in [9] it was 4 µM; in test [10], more than 10 µM; in test [11] it was more than 10 µM; in test [12], more than 10 µM.

Source of the values: PMC4490784, “Compensatory induction of MYC expression by sustained CDK9 inhibition via a BRD4-dependent mechanism” (eLife, 2015).
